# In PMC2951742 (ChemMedChem, 2010):
# Like-named read-outs stand apart in the source and are kept apart here.
# Columns and labels:
# hERG = hERG (Homo sapiens, UniProt Q12809); experiment: hERG assay; conditions: for hERG inhibition: result in words
# human 5-HT2B receptor = human 5-HT2B receptor (Homo sapiens, UniProt P41595); experiment: Calcium flux; assay type: cell-based; conditions: for 5-HT2B %MAX ± SEM: percent of maximal activation by 5-HT, activation at 10 μM for compounds without EC50 value
# [1] = biological target: T1, human 5-HT2C (INI) receptor (Homo sapiens, UniProt P28335); experiment: Calcium flux; assay type: cell-based; conditions: for 5-HT2C %MAX ± SEM: percent of maximal activation by 5-HT; for Selectivity 2A/2C / Selectivity 2B/2C: ratio of EC50 values
# T1 sequence (P28335 33-458): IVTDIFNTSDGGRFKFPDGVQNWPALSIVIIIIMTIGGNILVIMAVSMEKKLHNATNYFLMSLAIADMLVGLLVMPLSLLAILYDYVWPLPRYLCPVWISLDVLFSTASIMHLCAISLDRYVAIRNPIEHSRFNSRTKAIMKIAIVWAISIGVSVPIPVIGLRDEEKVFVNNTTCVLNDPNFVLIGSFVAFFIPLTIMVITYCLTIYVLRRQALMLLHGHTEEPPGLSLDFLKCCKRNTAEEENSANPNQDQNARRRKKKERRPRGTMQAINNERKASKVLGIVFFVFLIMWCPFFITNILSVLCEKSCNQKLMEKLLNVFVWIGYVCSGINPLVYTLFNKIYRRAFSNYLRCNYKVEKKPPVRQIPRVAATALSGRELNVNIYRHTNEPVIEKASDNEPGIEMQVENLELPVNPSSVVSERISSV
# human 5-HT2A receptor = human 5-HT2A receptor (Homo sapiens, UniProt P28223); experiment: Calcium flux; assay type: cell-based; conditions: for 5-HT2A EC50 ± SEM: HEK-293, calcium flux; for 5-HT2A %MAX ± SEM: percent of maximal activation by 5-HT, activation at 10 μM for compounds without EC50 value
# [2] = test system: PCP-disrupted PPI in mice; conditions: identical PPI testing paradigm, earlier work; cited from earlier work
# animals = experiment: Adverse side effects in animals; conditions: in vivo
# CYP3A4 = CYP3A4 (Homo sapiens, UniProt P08684); experiment: Recombinant CYP inhibition test, CYP3A4; assay type: in vitro ADME; conditions: at 10 μM
# CYP2D6 = CYP2D6 (Homo sapiens, UniProt P10635); experiment: Recombinant CYP inhibition test, CYP2D6; assay type: in vitro ADME; conditions: at 10 μM
# [3] = test system: PCP-disrupted PPI in mice; experiment: Normalization of PCP-disrupted prepulse inhibition; assay type: in vivo; conditions: 6 mg/kg PCP ip
# [4] = Microsomal stability, human microsomes; assay type: in vitro ADME; conditions: 1h assay
# [5] = Microsomal stability, rat microsomes; assay type: in vitro ADME; conditions: 1h assay
# CYP2C9 = CYP2C9 (Homo sapiens, UniProt P11712); experiment: Recombinant CYP inhibition test, CYP2C9; assay type: in vitro ADME; conditions: at 10 μM
# Chain of CYP2C9 (P11712 whole entry): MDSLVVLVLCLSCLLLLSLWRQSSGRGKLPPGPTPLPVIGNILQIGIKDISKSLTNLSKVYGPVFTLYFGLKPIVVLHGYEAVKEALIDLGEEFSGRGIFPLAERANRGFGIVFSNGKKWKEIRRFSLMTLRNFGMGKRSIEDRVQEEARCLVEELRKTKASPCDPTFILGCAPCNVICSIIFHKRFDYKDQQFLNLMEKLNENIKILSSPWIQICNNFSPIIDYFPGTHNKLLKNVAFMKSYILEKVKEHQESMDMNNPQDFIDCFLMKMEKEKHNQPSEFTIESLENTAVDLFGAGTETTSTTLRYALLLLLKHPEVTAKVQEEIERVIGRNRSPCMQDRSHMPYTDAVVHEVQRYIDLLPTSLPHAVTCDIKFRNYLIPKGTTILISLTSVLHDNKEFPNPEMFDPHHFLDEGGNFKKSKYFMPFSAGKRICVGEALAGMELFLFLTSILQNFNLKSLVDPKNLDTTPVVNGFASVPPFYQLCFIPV
# Chain of hERG (Q12809 whole entry): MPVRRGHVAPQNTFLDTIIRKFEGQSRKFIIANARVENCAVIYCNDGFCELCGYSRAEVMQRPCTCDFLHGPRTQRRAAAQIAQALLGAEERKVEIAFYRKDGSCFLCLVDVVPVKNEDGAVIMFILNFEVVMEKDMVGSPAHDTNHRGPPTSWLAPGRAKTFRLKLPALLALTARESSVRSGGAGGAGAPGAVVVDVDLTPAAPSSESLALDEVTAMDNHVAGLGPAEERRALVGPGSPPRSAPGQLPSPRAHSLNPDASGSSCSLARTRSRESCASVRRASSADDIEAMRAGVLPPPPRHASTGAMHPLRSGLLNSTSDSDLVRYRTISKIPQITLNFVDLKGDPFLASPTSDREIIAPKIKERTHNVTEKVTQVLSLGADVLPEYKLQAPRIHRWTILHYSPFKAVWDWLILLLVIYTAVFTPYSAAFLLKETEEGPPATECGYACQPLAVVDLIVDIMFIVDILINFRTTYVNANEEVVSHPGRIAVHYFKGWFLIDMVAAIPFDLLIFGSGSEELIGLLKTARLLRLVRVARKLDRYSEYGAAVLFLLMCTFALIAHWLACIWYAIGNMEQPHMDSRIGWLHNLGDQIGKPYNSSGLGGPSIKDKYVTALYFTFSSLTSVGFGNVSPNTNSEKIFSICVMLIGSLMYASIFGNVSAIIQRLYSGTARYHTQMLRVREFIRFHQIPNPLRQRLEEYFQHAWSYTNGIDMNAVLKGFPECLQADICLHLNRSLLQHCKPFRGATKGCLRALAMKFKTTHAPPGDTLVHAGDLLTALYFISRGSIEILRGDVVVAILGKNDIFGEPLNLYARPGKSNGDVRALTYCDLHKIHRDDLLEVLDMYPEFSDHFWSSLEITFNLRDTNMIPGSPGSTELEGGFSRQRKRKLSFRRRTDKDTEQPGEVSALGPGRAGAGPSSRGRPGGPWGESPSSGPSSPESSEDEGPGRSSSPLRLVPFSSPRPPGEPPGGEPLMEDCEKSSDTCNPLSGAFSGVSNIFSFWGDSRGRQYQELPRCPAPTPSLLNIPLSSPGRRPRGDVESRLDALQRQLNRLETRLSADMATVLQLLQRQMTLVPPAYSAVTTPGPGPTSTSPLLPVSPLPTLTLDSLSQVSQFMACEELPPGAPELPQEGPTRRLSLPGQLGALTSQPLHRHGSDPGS
# Chain of human 5-HT2B receptor (P41595 whole entry): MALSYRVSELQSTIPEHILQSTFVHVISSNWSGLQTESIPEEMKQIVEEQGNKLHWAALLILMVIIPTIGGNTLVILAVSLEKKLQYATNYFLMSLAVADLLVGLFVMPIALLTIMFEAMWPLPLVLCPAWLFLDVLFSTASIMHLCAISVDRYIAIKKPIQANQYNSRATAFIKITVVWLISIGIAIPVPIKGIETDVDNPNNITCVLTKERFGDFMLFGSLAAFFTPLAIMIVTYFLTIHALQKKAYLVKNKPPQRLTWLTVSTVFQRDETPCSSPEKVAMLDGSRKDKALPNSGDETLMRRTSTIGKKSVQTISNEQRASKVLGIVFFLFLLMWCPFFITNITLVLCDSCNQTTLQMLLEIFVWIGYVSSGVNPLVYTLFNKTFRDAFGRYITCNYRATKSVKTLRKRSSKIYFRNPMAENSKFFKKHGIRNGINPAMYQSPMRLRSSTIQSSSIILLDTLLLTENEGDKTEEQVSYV
# Chain of human 5-HT2A receptor (P28223 whole entry): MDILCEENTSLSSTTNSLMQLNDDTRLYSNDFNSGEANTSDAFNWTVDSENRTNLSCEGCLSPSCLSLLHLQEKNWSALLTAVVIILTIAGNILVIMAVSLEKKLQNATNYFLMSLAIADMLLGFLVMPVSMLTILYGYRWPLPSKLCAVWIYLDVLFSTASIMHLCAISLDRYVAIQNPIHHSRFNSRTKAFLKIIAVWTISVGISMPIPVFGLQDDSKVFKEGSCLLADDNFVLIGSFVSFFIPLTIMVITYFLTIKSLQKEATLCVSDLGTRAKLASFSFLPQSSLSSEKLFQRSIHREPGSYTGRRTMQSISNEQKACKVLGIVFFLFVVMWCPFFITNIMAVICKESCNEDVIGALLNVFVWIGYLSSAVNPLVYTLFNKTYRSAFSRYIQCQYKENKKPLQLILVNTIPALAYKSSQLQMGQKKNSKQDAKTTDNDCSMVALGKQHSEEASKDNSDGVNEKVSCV
# Chain of CYP3A4 (P08684 whole entry): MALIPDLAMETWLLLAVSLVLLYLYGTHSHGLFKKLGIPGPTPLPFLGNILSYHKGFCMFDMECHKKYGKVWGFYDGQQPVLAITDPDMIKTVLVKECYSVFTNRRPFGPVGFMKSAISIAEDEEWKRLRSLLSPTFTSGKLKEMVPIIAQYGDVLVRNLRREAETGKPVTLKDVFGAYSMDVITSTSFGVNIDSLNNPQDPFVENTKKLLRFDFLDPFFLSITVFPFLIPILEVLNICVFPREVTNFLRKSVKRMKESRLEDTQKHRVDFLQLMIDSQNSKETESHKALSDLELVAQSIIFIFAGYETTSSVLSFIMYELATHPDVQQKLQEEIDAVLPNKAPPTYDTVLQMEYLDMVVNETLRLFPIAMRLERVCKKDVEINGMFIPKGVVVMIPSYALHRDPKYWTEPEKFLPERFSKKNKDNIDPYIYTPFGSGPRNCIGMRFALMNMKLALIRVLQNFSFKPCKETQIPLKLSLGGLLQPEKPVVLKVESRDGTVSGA
# Chain of CYP2D6 (P10635 whole entry): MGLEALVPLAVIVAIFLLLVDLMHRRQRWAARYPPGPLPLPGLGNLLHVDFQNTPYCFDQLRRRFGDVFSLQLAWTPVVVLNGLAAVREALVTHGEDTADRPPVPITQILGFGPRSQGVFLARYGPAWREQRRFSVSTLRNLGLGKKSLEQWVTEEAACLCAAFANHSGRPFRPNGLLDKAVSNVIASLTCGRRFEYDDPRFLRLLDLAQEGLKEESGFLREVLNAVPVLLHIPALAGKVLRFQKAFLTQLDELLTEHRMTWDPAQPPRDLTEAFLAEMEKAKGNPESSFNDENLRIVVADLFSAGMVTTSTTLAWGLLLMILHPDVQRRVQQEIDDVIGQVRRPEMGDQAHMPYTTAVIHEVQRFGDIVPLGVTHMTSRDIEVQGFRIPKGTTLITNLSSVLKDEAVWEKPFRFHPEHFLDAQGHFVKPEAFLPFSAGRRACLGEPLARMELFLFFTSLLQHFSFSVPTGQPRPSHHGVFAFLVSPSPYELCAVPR
compound,measurement,setting,value
"C[C@H]1CNCCc2ccc(Cl)cc21 [2 (Lorcaserin), Lorcaserin]",hERG inhibition,hERG,no hERG inhibition was detected
same,5-HT2B %MAX ± SEM,human 5-HT2B receptor; first screening campaign,93% ± 1.2%
"c1cc2c3c(c1)c1c(n3CCNC2)CCCC1 [5 (WAY 629), WAY 629]",5-HT2C %MAX ± SEM,[1]; first screening campaign,80% ± 1.1%
same,5-HT2C %MAX ± SEM,[1]; second screening campaign,82% ± 3.5%
same,hERG inhibition,hERG,no hERG inhibition was detected
same,5-HT2A EC50 ± SEM,human 5-HT2A receptor; first screening campaign (upper table section),NA (NA: Emax ≤ 12%)
same,5-HT2A %MAX ± SEM,human 5-HT2A receptor; first screening campaign,1% ± 0.2%
same,5-HT2A EC50 ± SEM,human 5-HT2A receptor; second screening campaign (lower table section),NA (NA: Emax ≤ 12%)
same,5-HT2A %MAX ± SEM,human 5-HT2A receptor; second screening campaign,7% ± 2.0%
same,5-HT2B EC50 ± SEM,"human 5-HT2B receptor; first screening campaign (upper table section), HEK-293, calcium flux",NA (NA: Emax ≤ 12%)
same,5-HT2B %MAX ± SEM,human 5-HT2B receptor; first screening campaign,6% ± 1.3%
same,EC50,"human 5-HT2B receptor; read-out: 5-HT2B EC50, second screening campaign, value in μM",> 5 µM
same,5-HT2B %MAX ± SEM,human 5-HT2B receptor; second screening campaign,17% ± 2.7%
CN1CCN(C2=Nc3cc(Cl)ccc3Nc3ccccc32)CC1 [clozapine],Normalization of PCP-disrupted PPI,[2],robustly normalizes PCP-disrupted PPI
"NCC1CC1c1cc(F)ccc1OCC1CC1 (single isomer, unassigned; (+)) [(+)-12, trans-[2-(2 cyclopropylmethyloxy-5-fluorophenyl)cyclopropyl]-methylamine]",Adverse side effects in animals,animals,no adverse side effects
same,CYP3A4 inhibition,CYP3A4; midazolam as substrate,21.7%
same,CYP3A4 inhibition,CYP3A4; testosterone as substrate,25.1%
same,CYP2D6 inhibition,CYP2D6,27.0%
same,hERG inhibition,hERG,no hERG inhibition was detected
same,Normalization of PCP-disrupted PPI,[3]; 5 mg/kg dose level,still effective
same,Normalization of PCP-disrupted PPI,[3]; 10 mg/kg,able to normalize PCP-disrupted PPI
same,Normalization of PCP-disrupted PPI (Figure 3),"[3]; 30 min pre-treatment, dose not stated in legend",effectively normalize PCP-disruption of PPI
same,"Microsomal stability, % left",[4],90.5%
same,"Microsomal stability, % left",[5],66%
same,CYP2C9 inhibition,CYP2C9,19.6%
"c1cc2c3c(c1)[C@H]1CCC[C@H]1CN3CCNC2 [3 (Vabicaserin), Vabicaserin]",hERG inhibition,hERG,no hERG inhibition was detected
"O=C1Nc2cc(Cl)c(Cl)cc2N2CCNCC12 (centres unmarked) [4 (WAY-161503), WAY-161503]",5-HT2C %MAX ± SEM,[1]; first screening campaign,97% ± 1.6%
same,Selectivity 2A/2C,[1]; first screening campaign,70
same,Selectivity 2B/2C,[1]; first screening campaign,14
same,5-HT2C %MAX ± SEM,[1]; second screening campaign,94% ± 3.6%
same,Selectivity 2A/2C,[1]; second screening campaign,40
same,Selectivity 2B/2C,[1]; second screening campaign,11
same,"hERG inhibition, concentration value",hERG; quantity not given,3.6 mM
same,hERG inhibition,hERG,very modest inhibition
same,5-HT2A %MAX ± SEM,human 5-HT2A receptor; first screening campaign,80% ± 1.0%
same,5-HT2A %MAX ± SEM,human 5-HT2A receptor; second screening campaign,79% ± 4.5%
same,5-HT2B %MAX ± SEM,human 5-HT2B receptor; first screening campaign,92% ± 1.3%
same,5-HT2B %MAX ± SEM,human 5-HT2B receptor; second screening campaign,86% ± 4.7%
